Assays:
[1] = molecular target: T1, Sodium-dependent serotonin transporter (Homo sapiens, UniProt P31645); test: Inhibition of […] uptake at SERT (unknown origin) expressed in LLC-PK1 cell membranes; type: cell-based
Target sequence in this assay (P31645 whole entry): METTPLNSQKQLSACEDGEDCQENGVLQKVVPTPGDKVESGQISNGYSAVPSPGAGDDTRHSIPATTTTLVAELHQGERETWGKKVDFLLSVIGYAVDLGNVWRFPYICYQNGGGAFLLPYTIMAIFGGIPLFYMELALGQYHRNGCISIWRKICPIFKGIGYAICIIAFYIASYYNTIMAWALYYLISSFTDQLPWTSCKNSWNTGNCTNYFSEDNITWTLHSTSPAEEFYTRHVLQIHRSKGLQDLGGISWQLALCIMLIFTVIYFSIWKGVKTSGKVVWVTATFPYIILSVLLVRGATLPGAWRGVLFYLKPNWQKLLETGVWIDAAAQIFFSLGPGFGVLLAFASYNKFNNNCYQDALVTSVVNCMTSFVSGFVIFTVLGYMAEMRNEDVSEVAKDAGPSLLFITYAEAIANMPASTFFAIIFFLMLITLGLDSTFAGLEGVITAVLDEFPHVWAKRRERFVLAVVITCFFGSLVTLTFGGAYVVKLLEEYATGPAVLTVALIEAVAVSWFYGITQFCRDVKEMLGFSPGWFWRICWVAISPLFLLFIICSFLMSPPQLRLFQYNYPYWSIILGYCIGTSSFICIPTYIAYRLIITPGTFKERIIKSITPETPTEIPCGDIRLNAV

[2] = molecular target: T1, Sodium-dependent serotonin transporter; test: Binding affinity to SERT (unknown origin)
Target sequence in this assay (P31645 whole entry): as above

[3] = molecular target: T1, Sodium-dependent serotonin transporter; test: biochemical; type: cell-based, LLC-PK1
Target sequence in this assay (P31645 whole entry): as above
Description: Inhibition of [125I]IDAM uptake at SERT (unknown origin) expressed in LLC-PK1 cell membranes

[4] = molecular target: T1, Sodium-dependent serotonin transporter; test: Potency index, ratio of Ki of Flip-ADAM to Ki of compound for SERT (unknown origin)
Target sequence in this assay (P31645 whole entry, looked up): as the sequence (P31645 whole entry) above

[5] = molecular target: T1, Sodium-dependent serotonin transporter; test: Potency index, ratio of Ki of IDAM to Ki of compound for SERT (unknown origin)
Target sequence in this assay (P31645 whole entry, looked up): as the sequence (P31645 whole entry) above

Nucleic Acid = test: Ratio of drug level in hypothalamus to cerebellum in rat measured 60 mins compound dose; type: ADME, tissue-based; settings: in vivo, 1 h

Compound | Ki [2] [nM] | Ki [3] [nM] | other results
CN(C)Cc1ccccc1Sc1ccc(I)cc1CO |  |  | Ki [1]: 0.1 nM
CN(C)Cc1ccccc1Sc1ccc([123I])cc1N | 0.013 |  | 
O=C(OCCF)[C@H]1[C@@H](c2ccc(/C=C\I)cc2)C[C@H]2CC[C@H]1N2 | 0.08 |  | 
CN(C)Cc1cc(I)ccc1Sc1ccccc1CO |  | 0.03 | Ratio Ki [4]: 33; Ratio Ki [5]: 3
CN(C)Cc1ccccc1Sc1ccc([123I])cc1CO | 0.097 |  | Ratio (Nucleic Acid): 2.76
CN(C)Cc1cc(I)ccc1Sc1ccccc1N |  | 1 | 
